Assay results taken from patent publication US8691799B2, “Materials and methods for treatment of cancer and identification of anti-cancer compounds” (priority 2001, dated 2014).

How the values were obtained:
[1] = system: JAK1; assay: JAK kinase autophosphorylation assay on immunoprecipitates (JAK1); format: biochemical; conditions: immunoprecipitates from MDA-MB-468 or v-Src/NIH 3T3 cells; AG490 100 μM, PD180970 2 μM
Method: JAK Kinase Assays. A549, MDA-MB-468, and v-Src transformed NIH 3T3 cells were harvested, washed three times in PBS-V (10 mM sodium phosphate, pH 7.4, 137 mM NaCl, 1 mM sodium orthovanadate) then lysed for 30 min on ice in JAK kinase lysis buffer (25 mM Hepes, pH 7.4, 0.1% Triton-X-100, 0.5 mM DTT, 1 mM sodium orthovanadate, 1 mM PMSF, 10 μg/ml aprotinin, 10 μg/ml leupeptin). Samples were spun at high speed to clear, and 800-1000 μg of protein was immunoprecipitated per treatment condition with 50 ng of either JAK1 or JAK2 antibody (Santa Cruz Biotechnology) rocking overnight at 4° C. 25 μl of protein A/G PLUS agarose then was added and rocking continued for 1 hr at 4° C. Samples were spun to collect agarose pellet, and pellet washed twice in wash buffer (50 mM Hepes, pH 7.4, 0.1% Triton-X-100, 0.5 mM DTT, 150 mM NaCl) and once in phosphorylation buffer (50 mM Hepes, pH 7.4, 0.1% Triton-X-100, 0.5 mM DTI, 6.25 mM manganese chloride, 100 mM NaCl). Kinase reactions were performed at 30° C. for 15 min in a final volume of 100 μl of phosphorylation buffer. Samples were pretreated with DMSO control, JSI-124, and control compounds (AG490, 100 μM, and […], 2 μM) before addition of 20 μCi/sample y-[^32P]ATP. Reaction was halted using stop buffer (wash buffer plus 10 mM EDTA), samples spun to collect pellet, then pellet washed once with stop buffer and twice with wash buffer. Samples were then placed in 2×SDS-PAGE sample buffer, boiled at 100° C., and run on 8% SDS-PAGE gels to separate proteins. Autophosphorylation results were visualized by autoradiography.

[2] = system: MDA-MB-468 tumors; assay: Antitumor activity, MDA-MB-468 xenograft in nude mice; format: in vivo; conditions: 1 mg/kg/day i.p.
Excerpt: (§1) Antitumor Activity in the Nude Mouse Tumor Xenograft Model. Nude mice and C57 BL-6 black mice (National Cancer Institute, Bethesda, Md.) were maintained in accordance with the Institutional Animal Care and Use Committee (IACUC) procedures and guidelines. v-Src- and oncogenic H-Ras-transformed NIH 3T3, A549, MDA-MB-468 and Calu-1 cells were harvested, resuspended in PBS and injected s.c. into the right and left flank (10×10^6 cells per flank) of 8 week old female nude mice as reported previously (Sun, J. et al. Cancer Res., 1999, 59:4919-4926). Similarly, murine B16-F10 Melanoma cells were injected s.c. into the right and left flank (10^6 cells per flank) of C57 black mice. When tumors reached about 150 mm^3, animals were randomized (five animals per group; two tumors per animal) and dosed i.p. with 0.2 ml once daily. Control animals received DMSO (20%) vehicle whereas treated animals were injected with JSI-124 (1 mg/kg/day) in 20% DMSO in water. The tumor volumes were determined by measuring the length (l) and the width (w) and calculating the volume (V=1w^2/2) as described previously (Sun, J. et al. Cancer Res., 1999, 59:4919-4926). Statistical significance between control and treated animals were evaluated by using Student's t-test. […] Percent surviving mice was determined by monitoring the death of mice until all mice died. […]

[3] = system: Calu-1 tumors; assay: Antitumor activity, Calu-1 xenograft in nude mice; format: in vivo; conditions: 1 mg/kg/day i.p.
Excerpt: as §1

[4] = Tolerability observations in treated mice; format: in vivo
Excerpt: Antitumor Activity in the Nude Mouse Tumor Xenograft Model. Nude mice and C57 BL-6 black mice (National Cancer Institute, Bethesda, Md.) were maintained in accordance with the Institutional Animal Care and Use Committee (IACUC) procedures and guidelines. v-Src- and oncogenic H-Ras-transformed NIH 3T3, A549, MDA-MB-468 and Calu-1 cells were harvested, resuspended in PBS and injected s.c. into the right and left flank (10×10^6 cells per flank) of 8 week old female nude mice as reported previously (Sun, J. et al. Cancer Res., 1999, 59:4919-4926). Similarly, murine B16-F10 Melanoma cells were injected s.c. into the right and left flank (10^6 cells per flank) of C57 black mice. When tumors reached about 150 mm^3, animals were randomized (five animals per group; two tumors per animal) and dosed i.p. with 0.2 ml once daily. […] The tumor volumes were determined by measuring the length (l) and the width (w) and calculating the volume (V=1w^2/2) as described previously (Sun, J. et al. Cancer Res., 1999, 59:4919-4926). Statistical significance between control and treated animals were evaluated by using Student's t-test. For the mouse survival experiments, C57 BL-6 black mice were implanted s.c. with B16-F10 cells (10^5 to 10^6 cells per flank). On day 5 after implantation the mice were randomized (6 animals per group) and treated with either vehicle or JSI-124 (1 mg/Kg/day) for 25 days. Percent surviving mice was determined by monitoring the death of mice until all mice died. Two experiments of 12 animals each (6 control and 6 treated with JSI-124) were carried out. For statistical analysis: for each of the two experiments, mice receiving JSI-124 were compared to those receiving vehicle control with respect to survival using the permutation log rank test as implemented in the statistical software package, ProcStatXact (p-values are two sided and exact).

CC(C)(O)/C=C/C(=O)[C@](C)(O)[C@H]1[C@H](O)C[C@@]2(C)[C@@H]3CC=C4[C@@H](C=C(O)C(=O)C4(C)C)[C@]3(C)C(=O)C[C@]12C [JSI-124, cucurbitacin I]
JAK1 kinase activity (autophosphorylation) in vitro [1]: not affected | inhibition of MDA-MB-468 tumor growth [2]: 86% | effect on growth of Calu-1 tumors [3]: little effect | effects on body weight, activity or food intake of mice ([4]; 1 mg/kg/day and 0.5 mg/kg/day i.p.): no effects on body weight, activity or food intake | edema at the local site of drug injection (peritoneal cavity) ([4]; 1 mg/kg/day i.p.): caused edema
